Assay: Hematology assays in cynomolgus monkeys (Example 45)
Assay type: in vivo
Details: for MCH / MCHC / MCV / RBC count / WBC count / hematocrit / hemoglobin: escalating dose regimen
Outline: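 Cynomolgus monkeys (2 male, 3 female per group) dosed subcutaneously with antisense oligonucleotide or PBS, escalating 5, 10, then 25 mg/kg two to three times weekly over 12 weeks; one chronic group held at 10 mg/kg from week 4. Blood sampled weekly; necropsy on day 85.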

ISIS 416864: MOE gapmer, nucleobases 1275 to 1318 of SEQ ID NO: 1 (Table 8) (antisense GGCAGCGGACGGCATTGGTG; MOE gapmer, wing and gap sizes not given here)
MCH (Day 64): 23 pg | MCH (Day 71): 23 pg | MCH (Day 78): 23 pg | MCH (Day 85): 23 pg | basophils (day 8): 0.2% | eosinophils (day 8): 0.7% | lymphocytes (day 8): 45% | monocytes (day 8): 2.1% | neutrophils (day 8): 52% | platelet count (day 8): 438000 µL⁻¹ | reticulocytes (day 8): 0.8% | MCH (day 8): 23 pg | MCHC (day 8): 29 g/dL | MCV (day 8): 78 fL | RBC count (day 8): 5.7e+06 µL⁻¹ | WBC count (day 8): 11000 µL⁻¹ | hematocrit (day 8): 44% | hemoglobin (day 8): 12.7 g/dL | basophils (day 15): 0.2% | eosinophils (day 15): 0.5% | lymphocytes (day 15): 38% | monocytes (day 15): 2.4% | neutrophils (day 15): 59% | platelet count (day 15): 439000 µL⁻¹ | reticulocytes (day 15): 0.8% | MCH (day 15): 23 pg | MCHC (day 15): 30 g/dL | MCV (day 15): 74 fL | RBC count (day 15): 5.7e+06 µL⁻¹ | WBC count (day 15): 10000 µL⁻¹ | hematocrit (day 15): 42% | hemoglobin (day 15): 12.8 g/dL | basophils (day 22): 0.2% | eosinophils (day 22): 0.9% | lymphocytes (day 22): 37% | monocytes (day 22): 2.8% | neutrophils (day 22): 59% | platelet count (day 22): 364000 µL⁻¹ | reticulocytes (day 22): 0.9% | MCH (day 22): 23 pg | MCHC (day 22): 29 g/dL | MCV (day 22): 79 fL | RBC count (day 22): 5.3e+06 µL⁻¹ | WBC count (day 22): 10000 µL⁻¹ | hematocrit (day 22): 42% | hemoglobin (day 22): 12.1 g/dL | basophils (day 29): 0.3% | eosinophils (day 29): 0.9% | lymphocytes (day 29): 51% | monocytes (day 29): 3.4% | neutrophils (day 29): 44% | platelet count (day 29): 397000 µL⁻¹ | reticulocytes (day 29): 1.3% | MCH (day 29): 23 pg | MCHC (day 29): 29 g/dL | MCV (day 29): 80 fL | RBC count (day 29): 5.3e+06 µL⁻¹ | WBC count (day 29): 10000 µL⁻¹ | hematocrit (day 29): 43% | hemoglobin (day 29): 12.1 g/dL | basophils (day 36): 0.3% | eosinophils (day 36): 0.6% | lymphocytes (day 36): 38% | monocytes (day 36): 2.3% | neutrophils (day 36): 58% | platelet count (day 36): 428000 µL⁻¹ | reticulocytes (day 36): 1.3% | MCH (day 36): 23 pg | MCHC (day 36): 30 g/dL | MCV (day 36): 76 fL | RBC count (day 36): 5.6e+06 µL⁻¹ | WBC count (day 36): 10000 µL⁻¹ | hematocrit (day 36): 42% | hemoglobin (day 36): 12.5 g/dL | basophils (day 43): 0.4% | eosinophils (day 43): 0.6% | lymphocytes (day 43): 39% | monocytes (day 43): 2.1% | neutrophils (day 43): 57% | platelet count (day 43): 351000 µL⁻¹ | reticulocytes (day 43): 1.1% | MCH (day 43): 22 pg | MCHC (day 43): 29 g/dL | MCV (day 43): 77 fL | RBC count (day 43): 5.5e+06 µL⁻¹ | WBC count (day 43): 10000 µL⁻¹ | hematocrit (day 43): 42% | hemoglobin (day 43): 12.2 g/dL | basophils (day 50): 0.4% | eosinophils (day 50): 0.7% | lymphocytes (day 50): 46% | monocytes (day 50): 2.9% | neutrophils (day 50): 49% | platelet count (day 50): 419000 µL⁻¹ | reticulocytes (day 50): 1.3% | MCH (day 50): 22 pg | MCHC (day 50): 28 g/dL | MCV (day 50): 79 fL | RBC count (day 50): 5.6e+06 µL⁻¹ | WBC count (day 50): 12000 µL⁻¹ | hematocrit (day 50): 44% | hemoglobin (day 50): 12.1 g/dL | basophils (day 57): 0.3% | eosinophils (day 57): 0.4% | lymphocytes (day 57): 39% | monocytes (day 57): 2.4% | neutrophils (day 57): 57% | platelet count (day 57): 409000 µL⁻¹ | reticulocytes (day 57): 1.0% | MCH (day 57): 23 pg | MCHC (day 57): 29 g/dL | MCV (day 57): 77 fL | RBC count (day 57): 5.5e+06 µL⁻¹ | WBC count (day 57): 12000 µL⁻¹ | hematocrit (day 57): 42% | hemoglobin (day 57): 12.3 g/dL | basophils (day 64): 0.4% | eosinophils (day 64): 0.7% | lymphocytes (day 64): 46% | monocytes (day 64): 2.8% | neutrophils (day 64): 49% | platelet count (day 64): 383000 µL⁻¹ | reticulocytes (day 64): 0.8% | MCHC (day 64): 29 g/dL | MCV (day 64): 75 fL | RBC count (day 64): 5.6e+06 µL⁻¹ | WBC count (day 64): 11000 µL⁻¹ | hematocrit (day 64): 42% | hemoglobin (day 64): 12.1 g/dL | basophils (day 71): 0.4% | eosinophils (day 71): 1.1% | lymphocytes (day 71): 52% | monocytes (day 71): 3.7% | neutrophils (day 71): 42% | platelet count (day 71): 394000 µL⁻¹ | reticulocytes (day 71): 1.0% | MCHC (day 71): 28 g/dL | MCV (day 71): 79 fL | RBC count (day 71): 5.6e+06 µL⁻¹ | WBC count (day 71): 14000 µL⁻¹ | hematocrit (day 71): 44% | hemoglobin (day 71): 12.2 g/dL | basophils (day 78): 0.3% | eosinophils (day 78): 1.2% | lymphocytes (day 78): 46% | monocytes (day 78): 3.7% | neutrophils (day 78): 48% | platelet count (day 78): 366000 µL⁻¹ | reticulocytes (day 78): 1.2% | MCHC (day 78): 30 g/dL | MCV (day 78): 74 fL | RBC count (day 78): 5.3e+06 µL⁻¹ | WBC count (day 78): 11000 µL⁻¹ | hematocrit (day 78): 39% | hemoglobin (day 78): 11.9 g/dL | basophils (day 85): 0.4% | eosinophils (day 85): 1.6% | lymphocytes (day 85): 54% | monocytes (day 85): 3.7% | neutrophils (day 85): 39% | platelet count (day 85): 387000 µL⁻¹ | reticulocytes (day 85): 1.5% | MCHC (day 85): 30 g/dL | MCV (day 85): 74 fL | RBC count (day 85): 5.4e+06 µL⁻¹ | WBC count (day 85): 12000 µL⁻¹ | hematocrit (day 85): 40% | hemoglobin (day 85): 12.3 g/dL | basophils (day −5): 0.2% | eosinophils (day −5): 0.9% | lymphocytes (day −5): 44% | monocytes (day −5): 3.3% | neutrophils (day −5): 51% | platelet count (day −5): 456000 µL⁻¹ | reticulocytes (day −5): 0.9% | MCH (day −5): 23 pg | MCHC (day −5): 29 g/dL | MCV (day −5): 79 fL | RBC count (day −5): 5.6e+06 µL⁻¹ | WBC count (day −5): 13000 µL⁻¹ | hematocrit (day −5): 44% | hemoglobin (day −5): 13.0 g/dL | basophils (day −14): 0.2% | eosinophils (day −14): 1.0% | lymphocytes (day −14): 42% | monocytes (day −14): 2.8% | neutrophils (day −14): 53% | platelet count (day −14): 434000 µL⁻¹ | reticulocytes (day −14): 0.9% | MCH (day −14): 23 pg | MCHC (day −14): 29 g/dL | MCV (day −14): 79 fL | RBC count (day −14): 5.5e+06 µL⁻¹ | WBC count (day −14): 13000 µL⁻¹ | hematocrit (day −14): 43% | hemoglobin (day −14): 12.7 g/dL

Reference: patent US20230263822A1, “MODULATION OF FACTOR 11 EXPRESSION” (Ionis Pharmaceuticals, Inc., priority 2008, published 2023)
